From patent US20050064014A1, “Use of cystathionine” (priority 2001, published 2005)
In brackets after ≈: the same amount, converted by molar mass. Read-outs that look alike come from different tables or passages of the source.

Key:
[1] = Maximum solubility in water; format: physicochemical; conditions: water at 25° C.; read-out: maximum level of solubility in water
Method: (§1) The cystathionine was added at its maximum level of solubility in water at 25° C., i.e. 0.6 mg/mL of water. The mixture was treated at 121° C. for 15 minutes in an autoclave and was analyzed.

[2] = format: physicochemical; conditions: for L-cystathionine (3 mM) Evaluated loss / L-cysteine (3 mM) Evaluated loss / L-cysteine (3 mM) Free cysteine / L-cysteine (3 mM) Oxidized cysteine: 121° C. for 15 minutes in an autoclave
Method: (§2) The stability of the cystathionine compared to that of cysteine was tested with deionized water and in various liquid enteral formulae (SONDALIS and REABILAN). REABILAN and SONDALIS (registered trademarks) are different enteral compositions comprising 35% of energy in the form of lipids, 50-52.5% in the form of carbohydrates, in particular of maltodextrins and starches, 12.5-15% in the form of peptides or proteins, and also comprising vitamins, mineral salts and other compounds such as taurine or L-camitine.
Stability Under Harsh Sterilization Conditions (121° C.-15 min) at 3 mM Concentration
Unlike cysteine, the cystathionine is found to be very stable.
In the enteral formulae, and after heat treatment, the amount of available cysteine decreases very substantially, and the relative loss of cysteine increases when the amount added decreases.

[3] = Stability under THA sterilization conditions (140° C.-15″), 43 mM in SONDALIS; format: physicochemical; conditions: THA sterilization 140° C.-15″
Method: Stability Under THA Sterilization Conditions (140° C.-15''), at High Concentration (43 mM) in […] […] The THA conditions therefore conventionally induce much less degradation than those described above, but slightly more than industrial UHT conditions. The high concentration (43 mM) was chosen because it falls within the average of that which may be recommended in enteral nutrition products. Under these conditions, the losses of cysteine are lower than for the harsh sterilization conditions (121° C.-15') but remain much too high (27%) for use in a nutrition product.

glutathione status = experiment: Physiological effectiveness: diet supplementation in infected rats (sepsis), glutathione concentration; format: in vivo; conditions: standard protein diet supplemented with cystathionine, compared with cysteine positive control group
Description: Groups of sick rats receiving differentiated diets are compared with regard to the glutathione concentration in various organs but especially in the liver. The liver is in fact the major organ for regulating glutathione synthesis in terms of the whole body. The compared groups received a standard protein diet supplemented either with an amino acid considered to be neutral with respect to glutathione (alanine) (control group), or with cysteine (positive control group), or with cystathionine (test group). A group of animals which are not sick is also realized (normal group).

[4] = Stability in water, autoclave 121° C. for 15 minutes; format: physicochemical; conditions: after 121° C. for 15 minutes
Method: as §2, §1
In water, cystathionine is very stable, even after treatment at 121° C. for 15 minutes, since the degree of recovery is 100%, and the cysteine is slightly oxidized to cystine (6%).

[5] = system: hepatic glutathione status; conditions: rats with sepsis, diet supplemented with cysteine; cited from earlier work

Row | solubility [1] [µg/mL] | stability in the enteral formulae before heat treatment [2] | L-cystathionine (3 mM) Evaluated loss ([2]; REABILAN) [%] | L-cystathionine (3 mM) Evaluated loss ([2]; SONDALIS) [%] | L-cystathionine (43 mM) Evaluated loss [3] [%] | L-cystathionine (43 mM) Non-degraded form [3] [%] | oxidized to cystine [4] [%] | L-cysteine (3 mM) Evaluated loss ([2]; REABILAN) [%] | L-cysteine (3 mM) Free cysteine ([2]; REABILAN) [%] | L-cysteine (3 mM) Oxidized cysteine ([2]; REABILAN) [%] | L-cysteine (3 mM) Evaluated loss ([2]; SONDALIS) [%] | L-cysteine (3 mM) Free cysteine ([2]; SONDALIS) [%] | L-cysteine (3 mM) Oxidized cysteine ([2]; SONDALIS) [%] | L-cysteine (43 mM) Evaluated loss [3] [%] | L-cysteine (43 mM) Free cysteine [3] [%] | L-cysteine (43 mM) Oxidized cysteine [3] [%] | L-cysteine (43 mM) Evaluated loss ([3]; listed as cysteine) [%] | SMILES | L-cystathionine (43 mM) Evaluated loss ([3]; listed as cystathionine) | glutathione concentration (glutathione status) | hepatic glutathione status [5]
1 | 600 (≈ 2700 µM) | very stable | 0 | 17 | 4 | 96 | – | – | – | – | – | – | – | – | – | – | – | N[C@@H](CCSC[C@H](N)C(=O)O)C(=O)O [L-cystathionine, cystathionine] | at the limit of reproducibility of the assaying method | level equivalent to that of the positive control group | –
2 | – | relatively unstable | – | – | – | – | 6 | 83 | 12 | 5 | 86 | 11 | 3 | 27 | 66 | 7 | 27 | N[C@@H](CS)C(=O)O [L-cysteine, cysteine] | – | – | re-establish hepatic glutathione status at the level of a normal animal
